We go through eight compounds from patent US10577362B2, “Substituted 2, 4-diamino-quinoline derivatives for use in the treatment of proliferative diseases” (GENOSCIENCE PHARMA, priority 2016, dated 2020).

One may read the viability as a read-out of living cells in per cent, often relative to untreated cells. As usually defined, the EC50 is the concentration that produces a half-maximal response.

Test [1] has as its system HCT-116 (colorectal carcinoma) cell line. Put plainly: CellTiter-Glo luminescent cell viability assay, HCT-116. It is filed as cell-based, human. The settings on record: Homo sapiens; for viability at 4 µM: HCT-116, compound at 4 μM; for viability at 4 µM / viability at 10 µM: 72 h; for viability at 10 µM: HCT-116, compound at 10 μM; for EC50: HCT-116 cell line, 72 h incubation, CellTiter-Glo, read-out: EC50, growth inhibition of HCT-116. The gist of the method:
(§1)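 Adherent lines plated overnight, MOLM-14 (suspension) 1 h before dosing, in medium with 10% FBS at 37 °C, 5% CO2. Compounds added at varying concentrations for 72 h; CellTiter-Glo luminescence read, EC50 as dose reducing signal to 50% of diluent-treated cells, at least duplicate points.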
A general note: In ATP-based viability assays light output follows the ATP content of the culture.

For test [2], the system named is A375 (malignant melanoma) cell line. The test is described as follows: CellTiter-Glo luminescent cell viability assay, A375. To be noted: Homo sapiens, A-375; for viability at 4 µM: A375, compound at 4 μM; for viability at 4 µM / viability at 10 µM: 72 h; for viability at 10 µM: A375, compound at 10 μM; for EC50: A375 cell line, 72 h incubation, CellTiter-Glo, read-out: EC50, growth inhibition of A375. In kind it is cell-based, human. The gist of the method:
as §1

The subject of test [3] is 786-O (renal adenocarcinoma) cell line. Put plainly: CellTiter-Glo luminescent cell viability assay, 786-O. It is filed as cell-based, human. To be noted: Homo sapiens, 786-0; for viability at 4 µM / viability at 10 µM: 786-O, 72 h; for viability at 4 µM: compound at 4 μM; for viability at 10 µM: compound at 10 μM; for EC50: 786-O cell line, 72 h incubation, CellTiter-Glo, read-out: EC50, growth inhibition of 786-O. The gist of the method:
as §1

Test [4] relates to PANC-1 (prancreatic carcinoma) cell line. The test is described as follows: CellTiter-Glo luminescent cell viability assay, PANC-1. To be noted: Homo sapiens; for viability at 4 µM: PANC-1, 4 μM; for viability at 4 µM / viability at 10 µM: 72 h, % of signal of diluent-treated cultures; for viability at 10 µM: PANC-1, 10 μM; for EC50: PANC-1 cell line, 72 h incubation, CellTiter-Glo, read-out: EC50 (growth inhibition assay of PANC-1 cell line). It is filed as cell-based. The gist of the method: (§2)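 Luminescent signal, normalised to diluent-treated cultures, defines % viability; EC50 is the concentration lowering it to 50%. Cells had been exposed to compound for 72 h at 37 °C in medium with 10% FBS, at a constant H2O or DMSO percentage.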

In test [5] the test system is HepG2 (hepatocellular carcinoma) cell line. Put plainly: CellTiter-Glo luminescent cell viability assay, HepG2. It is filed as cell-based, human. The settings on record: Homo sapiens; for viability at 4 µM / viability at 10 µM: HepG2, HepG, 72 h; for viability at 4 µM: compound at 4 μM; for viability at 10 µM: compound at 10 μM; for EC50: HepG2 cell line, 72 h incubation, CellTiter-Glo, read-out: EC50, growth inhibition of HepG2. The gist of the method:
as §2

Test [6] relates to Huh7 (hepatocellular carcinoma) cell line. The test is described as follows: CellTiter-Glo luminescent cell viability assay, Huh7. In kind it is cell-based, human. To be noted: Homo sapiens, Huh-7; for viability at 4 µM: Huh7, compound at 4 μM; for viability at 4 µM / viability at 10 µM: 72 h; for viability at 10 µM: Huh7, compound at 10 μM; for EC50: Huh7 cell line, 72 h incubation, CellTiter-Glo, read-out: EC50, growth inhibition of Huh7. The gist of the method: as §2

For test [7], the system named is MOLM-14 (acute myeloid leukemia) cell line. The test is described as follows: CellTiter-Glo luminescent cell viability assay, MOLM-14. The settings on record: Homo sapiens; for viability at 4 µM: MOLM-14, compound at 4 μM; for viability at 4 µM / viability at 10 µM: 72 h; for viability at 10 µM: MOLM-14, compound at 10 μM; for EC50: MOLM-14 cell line, 72 h incubation, CellTiter-Glo, read-out: EC50, growth inhibition of MOLM-14. It is filed as cell-based, human. The gist of the method:
as §2

Turning to `N#Cc1c(NCc2ccc(Cl)cc2)nc2ccccc2c1N1CCCC(N2CCOCC2)C1` (stereo not shown) [Compound 178CN, 2-(4-chlorobenzylamino)-3-cyano-4-[3-(morpholino)piperidin-1-yl]quinoline], the viability at 4 µM in test [1] turned out to be 95.7%; in test [2], 95.5%; in test [3], 99.6%; in test [4], 100%; in test [5], 101%; in test [6] it was 95.3%. Further, the viability at 4 µM in test [7] is 123%. In addition, the viability at 10 µM stood at 77% in test [1]; 90.2% in test [2]; 88.9% in test [3]; 96.6% in test [4]; 97.5% in test [5]; 81.9% in test [6]. Besides, in test [7], the viability at 10 µM stood at 106%.

Consider `N#Cc1c(NCc2ccc(Cl)cc2)nc2ccccc2c1N1CCC(N2CCOCC2)C1` (stereo not shown) [Compound 150CN, 2-(4-chloro-benzylamino)-3-cyano-4-(3-morpholino-pyrrolidin-1-yl)quinoline], for which the viability at 4 µM was determined as 99.5% in test [1]; 97.9% in test [2]; 96.1% in test [3]; 101% in test [4]; 100% in test [5]; 93.8% in test [6]. Further, the viability at 4 µM in test [7] is 109%. For the same compound, the viability at 10 µM came out at 95.1% in test [1]; 96.8% in test [2]; 91.4% in test [3]; 101% in test [4]; 103% in test [5]; 90.4% in test [6]. Moreover, the viability at 10 µM in test [7] turned out to be 114%.

In the case of `CC(C)(C)NC1CCN(c2c(C#N)c(NCc3ccccc3)nc3ccccc23)CC1` [Compound 3286CN, 2-(benzylamino)-3-cyano-4-[4-(tert-butylamino)piperidin-1-yl]quinoline], the viability at 4 µM in test [1] worked out at 7.6%; in test [2], 54.5%; in test [3], 73.5%; in test [4], 101%; in test [5] it was 85%; in test [6], 75.4%. Moreover, in test [7], the viability at 4 µM amounted to 90.4%. In addition, the viability at 10 µM in test [1] was 0.1%; in test [2], 0.2%; in test [3] it was 2.4%; in test [4], 54.8%; in test [5], 0.4%; in test [6], 0.4%. For the same compound, the viability at 10 µM in test [7] stood at 60.5%. For the same compound, the EC50 in test [1] is 5 to 10 µM; in test [2] it was 0.5 to 5 µM; in test [3], 5 to 10 µM; in test [4], 5 to 10 µM; in test [5] it was 5 to 10 µM; in test [6] it was 5 to 10 µM. In test [7], the EC50 lay in the range of 5 to 10 µM.

As for `CC(C)(C)NC1CCN(c2c(F)c(NCc3ccc(F)cc3)nc3ccccc23)CC1` [Compound 240F, 2-(4-fluorobenzylamino)-3-fluoro-4-[4-(tert-butylamino)piperidin-1-yl]quinoline], the viability at 4 µM in test [1] stood at 49.6%; in test [2], 73.6%; in test [3] it was 94.7%; in test [4], 96.5%; in test [5] it was 46.1%; in test [6] it was 70.5%. Besides, the viability at 4 µM in test [7] stood at 83.4%. In addition, the viability at 10 µM in test [1] turned out to be 0.2%; in test [2], 0.2%; in test [3], 28.7%; in test [4], 59.5%; in test [5], 0.1%; in test [6], 2.5%. Further, the viability at 10 µM in test [7] was 50.8%. The EC50 in test [1], in test [2], in test [3], in test [4], in test [5] and in test [6] was 5 to 10 µM each time. In test [7], the EC50 lay within 5 to 10 µM.

As to `CC(C)(C)NC1CCN(c2c(C#N)c(Nc3cccc(C(F)(F)F)c3)nc3ccccc23)CC1` [Compound 3256CN, 2-(3-trifluoromethylphenylamino)-3-cyano-4-[4-(tert-butylamino)piperidin-1-yl]quinoline], the viability at 4 µM in test [1] was 3.6%; in test [2] it was 55.2%; in test [3], 61.8%; in test [4] it was 104%; in test [5], 82.9%; in test [6], 78.3%. In addition, in test [7], the viability at 4 µM is 91.1%. Moreover, the viability at 10 µM is 0.2% in test [1]; 2.4% in test [2]; 13.7% in test [3]; 81.8% in test [4]; 56.6% in test [5]; 29.3% in test [6]. For the same compound, the viability at 10 µM in test [7] was 85.6%.

In the case of `CN1CCN(C2CCN(c3c(C#N)c(NCc4ccc(Cl)cc4)nc4ccccc34)C2)CC1` (stereo not shown) [Compound 3200CN, 2-(4-chloro-benzylamino)-3-cyano-4-[3-(4-methylpiper-azin-1-yl)pyrro-lidin-1-yl] quinoline], the viability at 4 µM in test [1] is 35.1%; in test [2], 47.3%; in test [3], 41.7%; in test [4], 90.2%; in test [5] it was 71.8%; in test [6], 80.6%. The viability at 4 µM in test [7] came to 97.1%. In addition, the viability at 10 µM in test [1] is 0.4%; in test [2], 0.3%; in test [3], 0.4%; in test [4], 38.4%; in test [5] it was 0.3%; in test [6] it was 0.4%. Further, the viability at 10 µM in test [7] stood at 0.4%. The EC50 in test [1], in test [2], in test [3], in test [5], in test [6] and in test [7] was 5 to 10 µM in each case.

As to `CC(C)NC1CCCN(c2c(C#N)c(NCc3ccc(Cl)cc3)nc3ccccc23)C1` (stereo not shown) [Compound 3160CN, 2-(4-chlorobenzylamino)-3-cyano-4-[3-(isopropylamino)piperidin-1-yl]quinoline], the viability at 4 µM is 57.7% in test [1]; 18.2% in test [2]; 65.2% in test [3]; 96.1% in test [4]; 62.1% in test [5]; 80.8% in test [6]. In test [7], the viability at 4 µM turned out to be 88.7%. For the same compound, the viability at 10 µM in test [1] worked out at 0.4%; in test [2] it was 0.4%; in test [3] it was 0.5%; in test [4], 1.2%; in test [5], 0.5%; in test [6] it was 0.5%. For the same compound, in test [7], the viability at 10 µM was 0.6%. Further, the EC50 in test [1] fell in the range of 0.5 to 5 µM; in test [2], 0.5 to 5 µM; in test [3] it was 5 to 10 µM; in test [4], 5 to 10 µM; in test [5], 0.5 to 5 µM; in test [6], 5 to 10 µM. For the same compound, the EC50 in test [7] lay within 5 to 10 µM.

Turning to `Cc1nnc(Nc2nc3ccccc3c(N3CCC(NC(C)(C)C)CC3)c2C#N)o1` [Compound 3272CN, 2-[(5-methyl-1,3,4-oxadiazol-2-yl)amino]-3-cyano-4-[4-(tert-butylamino)piperidin-1-yl]quinoline], the viability at 4 µM in test [1] was found to be 13.9%; in test [2] it was 62.3%; in test [3], 79%; in test [4], 84.7%; in test [5] it was 97.7%; in test [6], 92.6%. Also, the viability at 4 µM in test [7] was determined as 82.3%. Besides, the viability at 10 µM in test [1] came out at 5%; in test [2], 21.2%; in test [3], 48.9%; in test [4] it was 65.3%; in test [5] it was 61.2%; in test [6], 67.2%. The viability at 10 µM in test [7] was determined as 20.7%.
